Data as given in patent US20220380314A1, “SUBSTITUTED, SATURATED AND UNSATURATED N-HETEROCYCLIC CARBOXAMIDES AND RELATED COMPOUNDS FOR THEIR USE IN THE TREATMENT OF MEDICAL DISORDERS” (Bial - R&D Investments, S.A., priority 2019, published 2022).
Counter-ions that a name gives are not always drawn.

target: T1, acid ceramidase (hACR) (Homo sapiens, UniProt Q13510); assay: Acid ceramidase inhibition, biochemical fluorescent assay with cell lysates overexpressing acid ceramidase, substrate Rbm14-12; conditions: cell lysates overexpressing acid ceramidase; 1 hr preincubation at RT; pH 4.5; substrate Rbm14-12 6.3 μM; read-out: hACR IC50
T1 construct: expressed in transfected cells; cell lysate used
T1 sequence (Q13510 143-395 limits assumed): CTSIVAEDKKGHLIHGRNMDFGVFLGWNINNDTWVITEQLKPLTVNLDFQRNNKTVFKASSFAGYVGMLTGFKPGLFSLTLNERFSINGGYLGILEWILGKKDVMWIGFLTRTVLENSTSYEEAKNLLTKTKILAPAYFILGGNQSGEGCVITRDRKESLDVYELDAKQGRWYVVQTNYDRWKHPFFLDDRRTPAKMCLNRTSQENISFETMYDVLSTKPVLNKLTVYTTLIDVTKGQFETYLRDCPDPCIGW
T1 sequence (Q13510 22-142 limits assumed): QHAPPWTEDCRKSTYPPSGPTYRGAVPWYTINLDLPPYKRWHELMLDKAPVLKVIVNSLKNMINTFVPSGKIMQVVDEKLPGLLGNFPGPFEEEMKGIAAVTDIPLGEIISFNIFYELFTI
Description: The ability of exemplary compounds to inhibit acid ceramidase was measured.
Cell lysates overexpressing acid ceramidase were used as the enzyme source for compound potency determination in a biochemical fluorescent assay. Briefly, compounds were preincubated with 10 µg protein of cell lysates in a dose-response manner for 1 hr at RT in the assay buffer containing 25 mM NaAC and 100 mM NaCl, pH 4.5. The reaction was initiated by the addition of substrate Rbm14-12 at a final concentration of 6.3 μM. The reaction was run at RT for 1 hr before it was stopped by the addition of the stopping buffer containing 20% methanol (v/v), 1 mg/ml NaIO4, 0.1 M glycine, pH 10.6. The samples were incubated with the stopping buffer at RT for 1 hr to allow the fluorescent product to be formed. Finally the plate was read with SpectraMax i3 plate reader (Molecular Devices) at ex360 nm and em446 nm. Data were collected and used to determine the IC50 values of compounds by curve fitting to the four-parameter inhibition equation.
The symbol “A” indicates inhibition of less than 0.2 μM; the symbol “B” indicates inhibition in the range of 0.2 μM up to 1 μM; and the symbol “C” indicates inhibition of greater than 1 μM.

| Compound | IC50 [nM] |
| --- | --- |
| CCCCCNC(=O)N1C(c2ccccc2C)COCC1(C)C (stereo not drawn) [Example 158, 3,3-Dimethyl-5-(o-tolyl)-N-pentylmorpholine-4-carboxamide] | < 200 |
| CCCCCNC(=O)N1CCN(c2ccccc2)C(=O)C1(C)C [Example 107, 2,2-Dimethyl-3-oxo-N-pentyl-4-phenylpiperazine-1-carboxamide] | 200 to 1000 |
| CC1(C)CC(N2CCCCC2)/C(=C/c2ccccc2)CN1C(=O)NCCCCc1ccccc1 (stereo not drawn) [Example 128, (5E)-5-Benzylidene-2,2-dimethyl-N-(4-phenylbutyl)-4-(1-piperidyl)piperidine-1-carboxamide] | < 200 |
| CCCCCNC(=O)N1CCN(C2CC2)C[C@@H]1C(C)C [Example 118, (2S)-4-Cyclopropyl-2-isopropyl-N-pentylpiperazine-1-carboxamide] | > 1000 |
| CC1(C)CCCCN1C(=O)NCCCCc1ccccc1 [Example 90, 2,2-Dimethyl-N-(4-phenylbutyl)piperidine-1-carboxamide carboxamide] | > 1000 |
| COc1cc(N2CCN(C(=O)NCCCCc3ccccc3)C(C)(C)C2=O)ccc1F [Example 109, 4-(4-Fluoro-3-methoxy-phenyl)-2,2-dimethyl-3-oxo-N-(4-phenylbutyl)piperazine-1-carboxamide] | < 200 |
| CC1(C)CC(N2CCCCC2)/C(=C/c2ccccc2)CN1C(=O)NCCc1ccccc1 (stereo not drawn) [Example 129, (5E)-5-Benzylidene-2,2-dimethyl-N-(2-phenylethyl)-4-(1-piperidyl)piperidine-1-carboxamide] | 200 to 1000 |
| CC1CCC(c2ccccc2)CN1C(=O)NCCCCc1ccccc1 (mixture of isomers) [Example 80, 2-Methyl-5-phenyl-N-(4-phenylbutyl)piperidine-1-carboxamide] | < 200 |
| CCCCCNC(=O)N1[C@H](C)COC[C@@H]1c1ccc(F)cc1 [Example 142, (3S,5R)-3-(4-Fluorophenyl)-5-methyl-N-pentylmorpholine-4-carboxamide] | 200 to 1000 |
| CN1CCN(C2CCN(C(=O)NCCCCc3ccccc3)C(C)(C)C2)CC1 (stereo not drawn) [Example 87, 2,2-Dimethyl-4-(4-methylpiperazin-1-yl)-N-(4-phenylbutyl)piperidine-1-carboxamide dihydrochloride] | < 200 |
| CC1(C)CN(c2cncnc2)CCN1C(=O)NCCCCc1ccccc1 [Example 105, 2,2-Dimethyl-N-(4-phenylbutyl)-4-pyrimidin-5-yl-piperazine-1-carboxamide] | > 1000 |
| CC(C)[C@@H]1CN(C2CC2)CCN1C(=O)NCCCCc1ccccc1 [Example 116, (2R)-4-Cyclopropyl-2-isopropyl-N-(4-phenylbutyl)piperazine-1-carboxamide] | 200 to 1000 |
| CCCCCNC(=O)N1CC(c2ccccc2)C(N2CCCCC2)CC1(C)C (stereo not drawn) [Example 131, 2,2-Dimethyl-N-pentyl-5-phenyl-4-(1-piperidyl)piperidine-1-carboxamide] | < 200 |
| CCCCCNC(=O)N1C(c2ccc(F)cc2)CN(C)CC1(C)C (stereo not drawn) [Example 167, 6-(4-Fluorophenyl)-2,2,4-trimethyl-N-pentylpiperazine-1-carboxamide hydrochloride] | < 200 |
| CCCCCNC(=O)N1CCC(N2CCCCC2)CC1(C)C (stereo not drawn) [Example 84, 2,2-Dimethyl-N-pentyl-4-(1-piperidyl)piperidine-1-carboxamide] | < 200 |
| CC1(C)CN(C2CC2)CC(c2ccccc2)N1C(=O)NCCCCc1ccccc1 (stereo not drawn) [Example 169, 4-Cyclopropyl-2,2-dimethyl-6-phenyl-N-(4-phenylbutyl)piperazine-1-carboxamide] | < 200 |
| COc1ccc(C2COCC(C)(C)N2C(=O)NCCCCC2CC2)cc1 (stereo not drawn) [Example 149, N-(4-Cyclopropylbutyl)-5-(4-methoxyphenyl)-3,3-dimethylmorpholine-4-carboxamide] | < 200 |
| CCCCCNC(=O)N1CCC(c2ccccc2)CC1(C)C (stereo not drawn) [Example 76, 2,2-Dimethyl-N-pentyl-4-phenylpiperidine-1-carboxamide] | > 1000 |
| CCCCCNC(=O)N1C(c2ccc(OC)c(F)c2)COCC1(C)C (stereo not drawn) [Example 161, 5-(3-Fluoro-4-methoxyphenyl)-3,3-dimethyl-N-pentylmorpholine-4-carboxamide] | < 200 |
| CC1(C)CC(=O)C(c2ccccc2)CN1C(=O)NCCCCc1ccccc1 (stereo not drawn) [Example 123, 2,2-Dimethyl-4-oxo5-phenyl-N-(4-phenylbutyl)piperidine-1-carboxamide] | > 1000 |

| Compound | IC50 [nM] |
| --- | --- |
| CC1(C)COCC(c2ccc(F)cc2)N1C(=O)NCCCCc1ccccc1 (stereo not drawn) [Example 136, 5-(4-Fluorophenyl)-3,3-dimethyl-N-(4-phenylbutyl)morpholine-4-carboxamide] | < 200 |
| CC1(C)CN(c2ccccn2)CCN1C(=O)NCCCCc1ccccc1 [Example 104, 2,2-Dimethyl-N-(4-phenylbutyl)-4-(2-pyridyl)piperazine-1-carboxamide] | > 1000 |
| CC1C(c2ccccc2)CCCN1C(=O)NCCCCc1ccccc1 (mixture of isomers) [Example 81, 2-Methyl-3-phenyl-N-(4-phenylbutyl)piperidine-1-carboxamide] | 200 to 1000 |
| CCCCCNC(=O)N1C(c2ccc(OC)nc2)COCC1(C)C (stereo not drawn) [Example 159, 5-(6-Methoxy-3-pyridyl)-3,3-dimethyl-N-pentylmorpholine-4-carboxamide] | < 200 |
| CC1(C)CC(=O)/C(=C/c2ccccc2)CN1C(=O)NCCCCc1ccccc1 [Example 122, (5E)-5-Benzylidene-2,2-dimethyl-4-oxo-N-(4-phenylbutyl)piperidine-1-carboxamide] | < 200 |
| CC1(C)CC(N2CCCC(c3ccccc3)C2)CCN1C(=O)NCCCCc1ccccc1 (mixture of isomers) [Example 92, 2,2-Dimethyl-N-(4-phenylbutyl)-4-(3-phenyl-1-piperidyl)piperidine-1-carboxamide] | > 1000 |
| CC1(C)COCC(c2ccccc2)N1C(=O)NC1CCCCC1 (stereo not drawn) [Example 135, N-Cyclohexyl-3,3-dimethyl-5-phenylmorpholine-4-carboxamide] | 200 to 1000 |
| CC(C)[C@H]1CN(C2CC2)CCN1C(=O)NCCCCc1ccccc1 [Example 117, (2S)-4-Cyclopropyl-2-isopropyl-N-(4-phenylbutyl)piperazine-1-carboxamide] | > 1000 |
| CC1(C)CC(=O)C(Cc2ccccc2)CN1C(=O)NCCCCc1ccccc1 (stereo not drawn) [Example 121, 5-Benzyl-2,2-dimethyl-4-oxo-N-(4-phenylbutyl)piperidine-1-carboxamide] | < 200 |
| CCCCCNC(=O)N1C[C@@H](C)N(C2CC2)C[C@@H]1C [Example 114, (2S,5R)-4-cyclopropyl-2,5-dimethyl-N-pentylpiperazine-1-carboxamide] | > 1000 |
| COc1ccc(C2COCC(C)(C)N2C(=O)NCCC2CC2)cc1 (stereo not drawn) [Example 146, N-(2-Cyclopropylethyl)-5-(4-methoxyphenyl)-3,3-dimethylmorpholine-4-carboxamide] | < 200 |
| CCCCCNC(=O)N1CCC(N2CCCCC2)C[C@@H]1C (mixture of isomers) [Example 97, (2S)-Methyl-N-pentyl-4-(1-piperidyl)piperidine-1-carboxamide] | 200 to 1000 |
| CCCCCNC(=O)N1[C@@H](C)COC[C@H]1c1ccc(F)cc1 [Example 141, (3R,5S)-3-(4-Fluorophenyl)-5-methyl-N-pentylmorpholine-4-carboxamide] | 200 to 1000 |
| CC1(C)CN(C(=O)OCc2ccccc2)CC(c2ccccc2)N1C(=O)NCCCCc1ccccc1 (stereo not drawn) [Example 164, Benzyl 3,3-dimethyl-5-phenyl-4-(4-phenylbutylcarbamoyl)piperazine-1-carboxylate] | > 1000 |
| CCCCCNC(=O)N1C(c2ccc(F)cc2)COCC1(C)C (single isomer, unassigned) [Example 139, (5S) or (5R)-5-(4-fluorophenyl)-3,3-dimethyl-N-pentylmorpholine-4-carboxamide] | < 200 |
| COc1ccc(C2COCC(C)(C)N2C(=O)NCC(C)C)cc1 (stereo not drawn) [Example 143, N-iso-Butyl-5-(4-methoxyphenyl)-3,3-dimethylmorpholine-4-carboxamide] | < 200 |
| CCCCCCCNC(=O)N1CCC(N2CCCCC2)CC1(C)C (stereo not drawn) [Example 85, N-Heptyl-2,2-dimethyl-4-(1-piperidyl)piperidine-1-carboxamide] | > 1000 |
| CC1(C)COCC(c2ccccc2)N1C(=O)NCCCCc1ccccc1 (stereo not drawn) [Example 133, 3,3-Dimethyl-5-phenyl-N-(4-phenylbutyl)morpholine-4-carboxamide] | < 200 |
| CCCCCNC(=O)N1C/C(=C\c2ccccc2)C(N2CCCCC2)CC1(C)C (stereo not drawn) [Example 130, (5E)-5-Benzylidene-2,2-dimethyl-N-pentyl-4-(1-piperidyl)piperidine-1-carboxamide] | < 200 |
